Patent publication US20150045410A1, “METHOD OF REGULATING CFTR EXPRESSION AND PROCESSING” (University of Iowa Research Foundation, priority 2012, published 2015)

Columns and labels:
[1] = system: CFTR; test: Transepithelial conductance and current (Ussing chamber) in primary human airway epithelia; format: cell-based
Procedure: Airway epithelia from human trachea and primary bronchus removed from organs donated for research were cultured at the air-liquid interface (ALI) (Karp, P. H. et al. An in vitro model of differentiated human airway epithelia. Methods for establishing primary cultures. Methods Mol. Biol. 188, 115-137 (2002)). These studies were approved by the Institutional Review Board of the University of Iowa. Briefly, airway epithelial cells were dissociated from native tissue by pronase enzyme digestion. Permeable membrane inserts (0.6 cm^2 Millipore-PCF, 0.33 cm^2 Costar-Polyester) pre-coated with human placental collagen (IV, Sigma) were seeded with freshly dissociated epithelia. Seeding culture media used was DMEM/F-12 medium supplemented with 5% FBS, 50 units/mL penicillin, 50 μg/mL streptomycin, 50 μg/mL gentamicin, 2 μg/mL fluconazole, and 1.25 μg/mL amphotericin B. For epithelia from cystic fibrosis (CF) patients, the following additional antibiotics were used for the first 5 days: 77 μg/mL ceftazidime, 12.5 μg/mL imipenem and cilastatin, 80 μg/mL tobramycin, 25 μg/mL piperacillin and tazobactam, 20 μg/mL sulfamethoxazole, and 4 μg/mL trimethoprim. After seeding, the cultures were maintained in DMEM/F-12 medium supplemented with 2% Ultroser G (USG, Pall Biosepra) and the above listed antibiotics.
Transepithelial Cl^− current measurements were made in Ussing chambers about 2 weeks post-seeding (Itani, 0. A. et al. Human cystic fibrosis airway epithelia have reduced Cl− conductance but not increased Na+ conductance. Proc. Natl. Acad. Sci. USA 108, 10260-10265 (2011)). Briefly, primary cultures were mounted in a modified Ussing chamber (Jim's Instruments, 8 wells per instrument). Transepithelial Cl^− current was measured under short-circuit current conditions. Cultures were incubated overnight with 10 μM forskolin and 100 μM 3-isobutyl-1-methylxanthine (IBMX). After measuring baseline current, the transepithelial current (It) response to sequential apical addition of 100 μM amiloride (Amil), 100 μM 4,4′-diisothiocyanoto-stilbene-2,2′-disulfonic acid (DIDS), 4.8 mM [Cl^−], 10 μM forskolin and 100 μM 3-isobutyl-1-methylxanthine (IBMX), and 100 μM GlyH-101 was measured. Studies were conducted with a Cl^− concentration gradient containing 135 mM NaCl, 1.2 mM MgCl2, 1.2 mM CaCl2, 2.4 mM K2PO4, 0.6 mM KH2PO4, 5 mM dextrose, and 5 mM Hepes (pH 7.4) on the basolateral surface, and gluconate substituted for Cl^− on the apical side. […]

[2] = system: CFTR-ΔF508; test: Immunoblot (HA antibody) in HeLa cells stably expressing HA-tagged CFTR-ΔF508; format: cell-based; settings: CFTR-ΔF508-3HA
Procedure: (Wang, X. et al. Hsp90 cochaperone Aha1 downregulation rescues misfolding of CFTR in cystic fibrosis. Cell 127, 803-815 (2006)): Cell lines or primary cultures were washed with PBS and lysed in freshly prepared lysis buffer (1% Triton, 25 mM Tris pH 7.4, 150 mM NaCl, protease inhibitors (cOmplete™, mini, EDTA-free, Roche)) for 30 min at 4° C. The lysates were centrifuged at 14,000 rpm for 20 min at 4° C., and the supernatant quantified by BCA Protein Assay kit (Pierce). 20 μg (Calu-3) and 50 μg (human primary airway epithelial cultures, HeLa, HEK293T) of protein per lane was separated on a 7% SDS-PAGE gel for western blot analysis. Antibodies were procured for SIN3A (1:1000, R&D Systems), CTCF (1:500, Cell Signaling Technology), CFTR (R-769 (1:2000, CFFT), MM13-4 (1:1000, Millipore), M3A7 (1:500, Millipore), 24-1 (1:1000, R&D Systems)), hemagglutinin (1; 1000, Covance) and α-tubulin (1:10000, Sigma). Protein abundance was quantified by densitometry using an Alphalnnotech Fluorochem Imager (Alphalnnotech). For CFTR, band B and C were quantified separately. All bands were normalized to α-tubulin. Experiments were performed in triplicates per donor and mean and standard error of the mean determined using unpaired two-tailed t-test. […] If signal was detected, the stripping procedure was repeated till no signal was observed. […]

[3] = system: CFTR-ΔF508; test: CFTR-mediated Cl^− transport (transepithelial current) in primary CF airway epithelia; format: cell-based, human; settings: multiple donors, oligonucleotide transfection, F&I then GlyH-101
Procedure: FIG. 27. […] Change in It following F&I+PG-01 treatment of primary CF airway epithelial cells (homozygous for ΔF508-CFTR) with indicated reagents. N=1 donor. PG-01 is a potentiator used along with F&I to increase Cl^− transport.
Airway epithelia from human trachea and primary bronchus removed from organs donated for research were cultured at the air-liquid interface (ALI) (Karp, P. H. et al. An in vitro model of differentiated human airway epithelia. Methods for establishing primary cultures. Methods Mol. Biol. 188, 115-137 (2002)). These studies were approved by the Institutional Review Board of the University of Iowa. Briefly, airway epithelial cells were dissociated from native tissue by pronase enzyme digestion. […]
Transepithelial Cl^− current measurements were made in Ussing chambers about 2 weeks post-seeding (Itani, 0. A. et al. Human cystic fibrosis airway epithelia have reduced Cl− conductance but not increased Na+ conductance. Proc. Natl. Acad. Sci. USA 108, 10260-10265 (2011)). […] Transepithelial Cl^− current was measured under short-circuit current conditions. […] After measuring baseline current, the transepithelial current (It) response to sequential apical addition of 100 μM amiloride (Amil), 100 μM 4,4′-diisothiocyanoto-stilbene-2,2′-disulfonic acid (DIDS), 4.8 mM [Cl^−], 10 μM forskolin and 100 μM 3-isobutyl-1-methylxanthine (IBMX), and 100 μM GlyH-101 was measured. […]

Substance	It (transepithelial current) response to cAMP-dependent stimulation [1]	cAMP-stimulated Gt [1]	abundance of the mature, fully glycosylated CFTR band C [2]	CFTR-mediated Cl^− transport [3]
miR-138 mimic: synthetic modified RNA duplex, sense SEQ ID NO: 4, antisense SEQ ID NO: 5, showing miR-138-like activity	no change	increased	increased	restored
SIN3A DsiRNA: Dicer-substrate siRNA against SIN3A, sense SEQ ID NO: 6, antisense SEQ ID NO: 7 (sense GCGAUACAUGAAUUCAGAUACUACC; antisense GGUAGUAUCUGAAUUCAUGUAUCGCUC; chemistry not given here)	no change	increased	increased	restored
